Laboratory results reported in US11987586B1 (TAKEDA PHARMACEUTICAL COMPANY LIMITED, priority 2022, dated 2024).

Molecular target: T1, human OX2 receptor (Homo sapiens, UniProt O43614)
T1 construct: expressed in transfected cells
T1 sequence (O43614 1-444): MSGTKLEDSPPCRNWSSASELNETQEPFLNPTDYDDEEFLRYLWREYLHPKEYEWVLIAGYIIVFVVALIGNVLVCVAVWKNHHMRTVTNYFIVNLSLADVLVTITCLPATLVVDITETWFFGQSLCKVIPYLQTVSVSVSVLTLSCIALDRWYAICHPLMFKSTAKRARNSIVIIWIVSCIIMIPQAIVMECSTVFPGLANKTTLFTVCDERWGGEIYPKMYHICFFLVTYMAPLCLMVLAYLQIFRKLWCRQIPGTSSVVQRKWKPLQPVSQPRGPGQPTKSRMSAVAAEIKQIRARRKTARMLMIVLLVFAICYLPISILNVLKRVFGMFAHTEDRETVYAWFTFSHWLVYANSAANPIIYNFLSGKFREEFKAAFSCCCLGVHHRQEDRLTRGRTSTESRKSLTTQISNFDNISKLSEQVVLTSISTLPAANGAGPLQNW
Test: Measurement of orexin type 2 receptor agonist activity (calcium fluorescence, Fluo-4, FDSS)
Format: cell-based
Settings: 3 uM test compound; CHO cells expressing human OX2 receptor; DMSO = 0%, 10 nM orexin A (human) = 100%
Outline: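 CHO-K1 cells stably expressing human OX2 receptor (residues 1-444) were loaded with Fluo-4 AM plus probenecid. Calcium fluorescence after compound addition was recorded for 1 min 40 s. Activity (%) was scaled between DMSO (0%) and 10 nM orexin A final (100%).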

Row | OX2R agonist activity (3 uM, %) | SMILES
1 | 105% | CCS(=O)(=O)N[C@@H]1CN2C(=O)N(c3noc4cc(F)cc(-c5c(F)cc(F)cc5F)c34)CC[C@@H]2C1(F)F [Example 261]
2 | 114% | CCS(=O)(=O)N[C@@H]1CN2C(=O)N(c3noc4cccc(-c5c(F)cccc5F)c34)CC[C@@H]2C1(F)F [Example 262]
3 | 114% | CCS(=O)(=O)N[C@@H]1CN2C(=O)N(c3noc4cc(F)cc(-c5c(F)cccc5F)c34)CC[C@@H]2C1(F)F [Example 263, N-{(4aR,6R)-2-[4-(2,6-difluorophenyl)-6-fluoro-1,2-benzoxazol-3-yl]-5,5-difluoro-1-oxooctahydropyrrolo[1,2-c]pyrimidin-6-yl}ethanesulfonamide]
4 | 107% | CN(C)S(=O)(=O)N[C@@H]1Cn2c(cn(-c3noc4ccc(F)c(-c5c(F)cc(F)cc5F)c34)c2=O)C1(F)F [Example 264, N′-{(6R)-7,7-difluoro-2-[5-fluoro-4-(2,4,6-trifluorophenyl)-1,2-benzoxazol-3-yl]-3-oxo-2,5,6,7-tetrahydro-3H-pyrrolo[1,2-c]imidazol-6-yl}-N,N-dimethylsulfuric diamide]
5 | 103% | O=C1N(c2noc3cc(F)cc(-c4c(F)cc(F)cc4F)c23)C[C@H]2N1C[C@@H](NS(=O)(=O)CF)C2(F)F [Example 266]
6 | 101% | O=c1n(-c2noc3cc(C(F)F)cc(-c4c(F)cc(F)cc4F)c23)cc2n1C[C@@H](NS(=O)(=O)CF)C2(F)F [Example 267, N-{(6R)-2-[6-(difluoromethyl)-4-(2,4,6-trifluorophenyl)-1,2-benzoxazol-3-yl]-7,7-difluoro-3-oxo-2,5,6,7-tetrahydro-3H-pyrrolo[1,2-c]imidazol-6-yl}-1-fluoromethanesulfonamide]
7 | 104% | Cc1cc2onc(N3CC[C@H]4N(C[C@@H](NS(=O)(=O)C5CC5)C4(F)F)C3=O)c2c(-c2c(F)cccc2F)n1 [Example 268, N-{(4aR,6R)-2-[4-(2,6-difluorophenyl)-6-methyl[1,2]oxazolo[4,5-c]pyridin-3-yl]-5,5-difluoro-1-oxooctahydropyrrolo[1,2-c]pyrimidin-6-yl}cyclopropanesulfonamide]
8 | 104% | CCS(=O)(=O)N[C@@H]1CN2C(=O)N(c3noc4ccc(F)c(-c5c(F)cccc5F)c34)CC[C@@H]2C1(F)F [Example 269, N-{(4aR,6R)-2-[4-(2,6-difluorophenyl)-5-fluoro-1,2-benzoxazol-3-yl]-5,5-difluoro-1-oxooctahydropyrrolo[1,2-c]pyrimidin-6-yl}ethanesulfonamide]
9 | 109% | O=C1N(c2noc3ccc(F)c(-c4c(F)cccc4F)c23)CC[C@H]2N1C[C@@H](NS(=O)(=O)CF)C2(F)F [Example 270, N-{(4aR,6R)-2-[4-(2,6-difluorophenyl)-5-fluoro-1,2-benzoxazol-3-yl]-5,5-difluoro-1-oxooctahydropyrrolo[1,2-c]pyrimidin-6-yl}-1-fluoromethanesulfonamide]
10 | 107% | O=C1N(c2noc3cc(F)cc(-c4c(F)cccc4F)c23)CC[C@H]2N1C[C@@H](NS(=O)(=O)C1CC1)C2(F)F [Example 271, N-{(4aR,6R)-2-[4-(2,6-difluorophenyl)-6-fluoro-1,2-benzoxazol-3-yl]-5,5-difluoro-1-oxooctahydropyrrolo[1,2-c]pyrimidin-6-yl}cyclopropanesulfonamide]
11 | 109% | O=c1n(-c2noc3ccc(F)c(-c4c(F)cc(F)cc4F)c23)cc2n1C[C@@H](NS(=O)(=O)C1CC1)C2(F)F [Example 272, N-{(6R)-7,7-difluoro-2-[5-fluoro-4-(2,4,6-trifluorophenyl)-1,2-benzoxazol-3-yl]-3-oxo-2,5,6,7-tetrahydro-3H-pyrrolo[1,2-c]imidazol-6-yl}cyclopropanesulfonamide]
